Test system: tobacco hornworm (Manduca sexta) larvae
Assay: Tobacco hornworm growth and developmental responses to feeding on diets containing the compounds
Type: in vivo
Settings: for Total No. of Adults: all tests began with 15 larvae; for mean number of eggs: 4 day old females
Method: The compounds produced and described in Example 1 were then tested for pesticidal activity against the tobacco hornworm (Manduca sexta). The screening procedure for these tests began with the larval stage and continued through the pupal and adult stages and finally evaluated egg production. The studies thus permitted the evaluation of the effects of the compounds over several subsequent developmental stages in the total life cycle of the insect, giving estimates of acute toxicity (insecticidalor larvicidal activity) as well as prolonged or delayed effects on development (growth regulation) and reproduction (chemosterilization). The latter are of special importance in conjunction with the integrated pest management approach to insect control.
The test compounds were incorporated into the artificial diet of tobacco hornworm larvae and their subsequent growth and developmental responses were monitored using the following parameters: larval mortality including determination of LD50 values, rate of larval development and weight gain, percent pupation, pupal weight and degree of deformities, percent adult emergence and measures of reproductive capacity such as the number of developed ooctyes, fecundity and fertility. The protocol for the screening tests has been developed over a number of years by Dahlman et al., Comp. Biochem. Physiol. 51A, 33, (1975); Comp. Biochem. Physiol., 52A, 105 (1975); Ent. Exp. et Appl., 22, 123 (1977); Palumbo and D. L. Dahlman, J. Econ. Entomol. 71, 674 (1978); D. L. Dahlman, Ent. Exp. et Appl., 24, 327 (1978).
Each treatment used 15 newly ecdysed fifth-instar larvae. Death of larvae within a few hours to several days of initial exposure was considered to be acute toxicity. However, the compounds may reduce the maximum size attained by larvae and/or may retard growth so that larvae require additional time to attain their maximum size. Developmental parameters subsequent to the feeding stage also may be affected. […] Mortality may occur in the pupal stage or emerging adults may have wrinkled wings or other deformities. The number of eggs produced by treated females may be reduced and/or unfertile. Although acute toxicity is desirable in the control of any insect, the delayed effects which result in poor survival and reduced reproductive capacity are significant factors in the long-range program of pest management systems.
Continuous cultures of M. sexta are maintained according to the procedures of Yamamoto, J. Econ. Entomol., 62, p. 1427 (1969). Ingredients of the diet formulation include sugar, casein, wheat germ oil, cholesterol, salt mixture, yeast, vitamins, antioxidants and fungal inhibitors, such as ascorbic acid, sorbic acid, formaldehyde and methyl-p-benzoate. All are incorporated into a liquid agar base which, when poured into holding pans, solidifies to form an adequate substrate upon which the insect larvae feed. Nearly any test material can be uniformly incorporated into such a diet. Thus, exposure to experimental compounds can be evaluated during all or any part of the larval stage. In addition, chronic or long-term effects in subsequent life stages can also be monitored.
The results from these studies, in which the 1,2-diphenylaziridines of Example 1 were incorporated singly into the diet of M. sexta at a concentration of 5 mM are presented in the following Table I.

Row | Compound | % Adult Emergence (5 mM in diet) [%] | % Malformed Adults (5 mM in diet) [%] | % Pupation (5 mM in diet) [%] | Days to Max Wt (5 mM in diet) | Max Larval Wt (5 mM in diet) | Mean No. of Eggs (5 mM in diet) | No. of female Adults (5 mM in diet) | pupal mortality (5 mM in diet) | wrinkled or crumpled wings of moths (5 mM in diet) | Total No. of Adults (5 mM in diet) | pupal mortality (summary of Tables I and II) | effects on tobacco hornworm development (summary of Tables I and II) | feeding time required to attain reduced maximum weight (5 mM in diet) | larval mortality (5 mM in diet) | percent adult emergence (5 mM in diet) | percent pupation (5 mM in diet) | reduction in the maximum weight of hornworm larvae (5 mM in diet) | mean number of eggs (5 mM in diet)
1 | O=[N+]([O-])c1ccccc1C1CN1c1ccc(Cl)c(Cl)c1 (stereo not shown) [Compound 2] | 47 | 71 | 93 | 6.2 ± .1 days | 8.58 ± .31 g | 83 ± 29 | 5 | significant pupal mortality | observed in significant numbers of moths | 7 | caused pupal mortality | – | – | – | – | – | – | –
2 | O=[N+]([O-])c1cccc(N2CC2c2ccccc2[N+](=O)[O-])c1 (stereo not shown) [Compound 3] | 80 | 8 | 100 | 5.2 ± .1 days | 9.21 ± .24 g | 97 ± 14 | 9 | – | – | 12 | – | had no effect | – | – | – | – | – | –
3 | O=[N+]([O-])c1cccc(C2CN2c2ccccc2)c1 (stereo not shown) [Compound 4] | 100 | 7 | 100 | 5.1 ± .1 days | 9.01 ± .17 g | 67 ± 16 | 9 | – | – | 15 | – | had no effect | – | – | – | – | – | –
4 | Clc1ccccc1C1CN1c1ccccc1 (stereo not shown) [Compound 5] | 40 | 17 | 40 | 7.3 ± 1.4 days | 5.42 ± .42 g | 14 ± 17 | 3 | – | – | 6 | – | reduction in maximum larval weight, percent pupation, and mean number of eggs, and an increase in malformed adults | extended the feeding time | significant larval mortality | significantly lower than controls | a reduction in percent pupation | 30-50% | significantly reduced the mean number of eggs
5 | Brc1ccc(N2CC2c2ccccc2)cc1 (stereo not shown) [Compound 6] | 47 | 27 | 53 | 9.2 ± .5 days | 4.83 ± .42 g | 7 ± 5 | 5 | – | observed in significant numbers of moths | 7 | – | reduction in maximum larval weight, percent pupation, and mean number of eggs, and an increase in malformed adults | extended the feeding time | significant larval mortality | significantly lower than controls | a reduction in percent pupation | 30-50% | significantly reduced the mean number of eggs
6 | c1ccc(C2CN2c2ccccc2)cc1 (stereo not shown) [Compound 7, 1,2-diphenylaziridine] | 80 | 0 | 100 | 6.7 ± .2 days | 9.29 ± .17 g | 79 ± 19 | 10 | – | – | 12 | – | had no effect | – | – | – | – | – | –
7 | Clc1cccc(C2CN2c2ccc(Br)cc2)c1 (stereo not shown) [Compound 8] | 53 | 50 | 60 | 7.8 ± .6 days | 4.84 ± .19 g | 1 ± 0 | 4 | – | observed in significant numbers of moths | 8 | – | reduction in maximum larval weight, percent pupation, and mean number of eggs, and an increase in malformed adults | extended the feeding time | significant larval mortality | significantly lower than controls | a reduction in percent pupation | 30-50% | significantly reduced the mean number of eggs
8 | Clc1ccc(C2CN2c2ccc(Br)cc2)cc1 (stereo not shown) [Compound 9] | 86 | 15 | 93 | 5.0 ± .0 days | 6.46 ± .23 g | 74 ± 14 | 7 | – | – | 13 | – | – | – | – | – | – | 30-50% | –
9 | Clc1cccc(N2CC2c2ccccc2Cl)c1 (stereo not shown) [Compound 12] | 47 | 57 | 60 | 7.6 ± .8 days | 5.96 ± .40 g | 8 ± 11 | 2 | – | observed in significant numbers of moths | 7 | – | reduction in maximum larval weight, percent pupation, and mean number of eggs, and an increase in malformed adults | extended the feeding time | significant larval mortality | significantly lower than controls | a reduction in percent pupation | 30-50% | significantly reduced the mean number of eggs
10 | CCc1ccc(N2CC2c2ccccc2Cl)cc1 (stereo not shown) [Compound 16] | 80 | 20 | 87 | 5.5 ± .2 days | 7.48 ± .31 g | 44 | 4 | – | – | 12 | – | – | – | – | – | – | – | –
